Our source for the inhibition, residual activity and activity values is ChEMBL document CHEMBL4507276 (2021).

In data set [1] the target is Beta-1 adrenergic receptor (Homo sapiens) (UniProt P08588). Conditions: Compound concentration 10.0 uM; call rule not given here.
Data set [2] addresses T1, Tyrosine-protein kinase ITK/TSK (Homo sapiens) (UniProt Q08881).
T1 sequence (whole entry): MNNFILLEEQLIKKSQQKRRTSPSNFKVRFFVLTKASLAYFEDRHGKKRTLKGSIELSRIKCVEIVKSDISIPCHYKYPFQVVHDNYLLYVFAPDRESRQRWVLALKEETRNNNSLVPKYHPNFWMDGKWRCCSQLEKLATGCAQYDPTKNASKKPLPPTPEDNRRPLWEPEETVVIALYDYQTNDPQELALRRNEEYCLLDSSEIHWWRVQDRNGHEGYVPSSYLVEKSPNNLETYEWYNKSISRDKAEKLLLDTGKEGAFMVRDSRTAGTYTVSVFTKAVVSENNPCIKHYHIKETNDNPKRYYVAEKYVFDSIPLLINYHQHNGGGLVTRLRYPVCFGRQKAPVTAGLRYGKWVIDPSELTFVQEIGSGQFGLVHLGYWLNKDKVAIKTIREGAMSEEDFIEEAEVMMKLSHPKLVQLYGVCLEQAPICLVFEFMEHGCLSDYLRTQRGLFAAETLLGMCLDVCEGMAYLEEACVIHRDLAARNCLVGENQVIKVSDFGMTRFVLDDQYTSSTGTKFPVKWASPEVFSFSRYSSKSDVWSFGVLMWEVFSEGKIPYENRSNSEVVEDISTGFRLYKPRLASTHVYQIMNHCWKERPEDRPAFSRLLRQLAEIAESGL
The data set can be described thus: ITK Invitrogen selectivity data (BI). As to conditions: Compound concentration 3.0 uM.

The target in data set [3] is T2, Alpha-2A adrenergic receptor (Homo sapiens) (UniProt P08913).
T2 sequence (whole entry): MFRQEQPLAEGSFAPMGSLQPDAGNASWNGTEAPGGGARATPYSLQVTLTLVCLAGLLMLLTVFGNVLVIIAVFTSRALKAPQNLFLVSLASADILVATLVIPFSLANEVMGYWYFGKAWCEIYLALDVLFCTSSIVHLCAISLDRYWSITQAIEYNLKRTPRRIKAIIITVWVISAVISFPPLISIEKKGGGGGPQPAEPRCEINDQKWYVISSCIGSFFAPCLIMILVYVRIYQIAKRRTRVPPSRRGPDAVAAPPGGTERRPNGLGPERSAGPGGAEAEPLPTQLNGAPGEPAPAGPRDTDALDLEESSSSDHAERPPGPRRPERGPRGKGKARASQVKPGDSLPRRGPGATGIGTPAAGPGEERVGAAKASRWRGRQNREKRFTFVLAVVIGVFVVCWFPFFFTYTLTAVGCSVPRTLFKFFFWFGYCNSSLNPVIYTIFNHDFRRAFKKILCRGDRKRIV
The data set can be described thus: ALPHA2A/HU Cerep selectivity data (BI). Conditions: Compound concentration 20.0 uM.

For data set [4], the target named is Chloride channel protein 1 (Rattus norvegicus) (UniProt P35524). The data set is described as follows: CL-CHANNEL/R Cerep selectivity data (BI). As to conditions: Compound concentration 20.0 uM.
Data set [5] has as its system Serine/threonine-protein kinase B-raf (Homo sapiens), P15056 [V600E]. The data set is described as follows: BRAF V599E Invitrogen selectivity data (BI). Conditions: Compound concentration 3.0 uM.
The target in the next data set is hERG (KCNH2) (Homo sapiens, UniProt Q12809). The data set can be described thus: K+/HERG Eurofins-Panlabs selectivity data (BI). As to conditions: compound concentration 10 uM, read-out: % Ctrl.
Sequence of hERG (KCNH2) (Q12809 whole entry): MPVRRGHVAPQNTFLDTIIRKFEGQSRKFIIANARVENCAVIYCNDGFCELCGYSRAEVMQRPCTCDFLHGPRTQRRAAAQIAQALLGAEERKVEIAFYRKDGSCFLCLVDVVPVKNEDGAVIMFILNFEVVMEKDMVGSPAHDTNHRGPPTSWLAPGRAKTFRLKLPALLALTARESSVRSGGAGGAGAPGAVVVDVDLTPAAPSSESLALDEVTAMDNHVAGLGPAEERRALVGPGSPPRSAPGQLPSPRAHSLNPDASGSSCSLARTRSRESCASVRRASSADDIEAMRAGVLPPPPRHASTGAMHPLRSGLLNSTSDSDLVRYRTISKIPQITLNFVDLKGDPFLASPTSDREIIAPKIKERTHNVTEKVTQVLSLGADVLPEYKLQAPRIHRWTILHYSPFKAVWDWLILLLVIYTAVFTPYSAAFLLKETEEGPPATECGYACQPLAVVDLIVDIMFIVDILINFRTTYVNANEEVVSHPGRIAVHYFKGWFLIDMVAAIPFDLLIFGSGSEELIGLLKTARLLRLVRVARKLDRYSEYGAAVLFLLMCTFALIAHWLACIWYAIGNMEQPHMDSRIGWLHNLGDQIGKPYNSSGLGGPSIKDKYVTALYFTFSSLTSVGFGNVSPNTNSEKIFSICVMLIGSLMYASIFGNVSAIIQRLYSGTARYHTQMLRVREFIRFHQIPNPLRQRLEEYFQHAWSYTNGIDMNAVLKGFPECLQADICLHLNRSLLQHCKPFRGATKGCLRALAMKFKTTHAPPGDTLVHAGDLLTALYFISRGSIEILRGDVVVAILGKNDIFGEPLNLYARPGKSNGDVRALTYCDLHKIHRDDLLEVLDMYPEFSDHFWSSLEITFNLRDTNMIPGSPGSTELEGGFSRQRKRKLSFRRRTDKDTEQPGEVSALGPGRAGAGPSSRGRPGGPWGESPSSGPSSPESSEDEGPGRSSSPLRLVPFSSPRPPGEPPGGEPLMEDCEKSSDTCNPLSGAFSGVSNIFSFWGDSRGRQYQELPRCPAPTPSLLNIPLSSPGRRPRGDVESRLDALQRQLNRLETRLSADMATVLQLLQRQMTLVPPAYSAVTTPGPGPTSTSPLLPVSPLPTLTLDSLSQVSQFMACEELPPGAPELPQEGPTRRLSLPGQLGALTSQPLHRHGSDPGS
Data set [6] addresses Beta-secretase 1 (Homo sapiens) (UniProt P56817). The data set is described as follows: BACE-1 Cerep selectivity data (BI). As to conditions: Compound concentration 20.0 uM.
Data set [7] has as its target Tyrosine-protein kinase Lck (Homo sapiens) (UniProt P06239). The data set is described as follows: LCK Invitrogen selectivity data (BI). As to conditions: Compound concentration 3.0 uM.
In data set [8] the target is Casein kinase II subunit alpha' (Homo sapiens) (UniProt P19784). The data set is described as follows: CSNK2A2 Invitrogen selectivity data (BI). Conditions: Compound concentration 3.0 uM.
For data set [9], the target named is Tyrosine-protein kinase Srms (Homo sapiens) (UniProt Q9H3Y6). The data set is described as follows: SRMS Invitrogen selectivity data (BI). Conditions: Compound concentration 3.0 uM.
The target of data set [10] is Muscarinic acetylcholine receptor M3 (Homo sapiens) (UniProt P20309). The data set can be described thus: M3/H Cerep selectivity data (BI). As to conditions: Compound concentration 20.0 uM.
Sequence of Muscarinic acetylcholine receptor M3 (Homo sapiens) (P20309 whole entry, looked up): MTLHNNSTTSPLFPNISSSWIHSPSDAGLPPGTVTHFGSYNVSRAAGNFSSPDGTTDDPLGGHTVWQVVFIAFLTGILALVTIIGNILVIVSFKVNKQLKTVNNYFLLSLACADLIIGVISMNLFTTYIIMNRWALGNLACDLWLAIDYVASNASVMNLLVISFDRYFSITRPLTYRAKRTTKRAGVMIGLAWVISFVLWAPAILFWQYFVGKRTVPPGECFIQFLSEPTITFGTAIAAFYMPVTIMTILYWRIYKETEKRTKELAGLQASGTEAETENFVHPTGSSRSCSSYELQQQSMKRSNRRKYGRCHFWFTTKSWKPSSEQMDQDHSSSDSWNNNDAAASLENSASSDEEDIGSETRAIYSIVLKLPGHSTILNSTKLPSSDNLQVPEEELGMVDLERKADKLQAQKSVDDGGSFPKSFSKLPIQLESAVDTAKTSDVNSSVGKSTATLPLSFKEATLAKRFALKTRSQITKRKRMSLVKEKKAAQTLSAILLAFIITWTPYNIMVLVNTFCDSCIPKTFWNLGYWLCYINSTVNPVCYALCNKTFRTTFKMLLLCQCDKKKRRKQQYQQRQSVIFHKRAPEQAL
In data set [11] the target is Platelet-derived growth factor receptor alpha (Homo sapiens) (UniProt P16234). The data set is described as follows: PDGFRA Invitrogen selectivity data (BI). Conditions: Compound concentration 3.0 uM.
Sequence of Platelet-derived growth factor receptor alpha (Homo sapiens) (P16234 whole entry): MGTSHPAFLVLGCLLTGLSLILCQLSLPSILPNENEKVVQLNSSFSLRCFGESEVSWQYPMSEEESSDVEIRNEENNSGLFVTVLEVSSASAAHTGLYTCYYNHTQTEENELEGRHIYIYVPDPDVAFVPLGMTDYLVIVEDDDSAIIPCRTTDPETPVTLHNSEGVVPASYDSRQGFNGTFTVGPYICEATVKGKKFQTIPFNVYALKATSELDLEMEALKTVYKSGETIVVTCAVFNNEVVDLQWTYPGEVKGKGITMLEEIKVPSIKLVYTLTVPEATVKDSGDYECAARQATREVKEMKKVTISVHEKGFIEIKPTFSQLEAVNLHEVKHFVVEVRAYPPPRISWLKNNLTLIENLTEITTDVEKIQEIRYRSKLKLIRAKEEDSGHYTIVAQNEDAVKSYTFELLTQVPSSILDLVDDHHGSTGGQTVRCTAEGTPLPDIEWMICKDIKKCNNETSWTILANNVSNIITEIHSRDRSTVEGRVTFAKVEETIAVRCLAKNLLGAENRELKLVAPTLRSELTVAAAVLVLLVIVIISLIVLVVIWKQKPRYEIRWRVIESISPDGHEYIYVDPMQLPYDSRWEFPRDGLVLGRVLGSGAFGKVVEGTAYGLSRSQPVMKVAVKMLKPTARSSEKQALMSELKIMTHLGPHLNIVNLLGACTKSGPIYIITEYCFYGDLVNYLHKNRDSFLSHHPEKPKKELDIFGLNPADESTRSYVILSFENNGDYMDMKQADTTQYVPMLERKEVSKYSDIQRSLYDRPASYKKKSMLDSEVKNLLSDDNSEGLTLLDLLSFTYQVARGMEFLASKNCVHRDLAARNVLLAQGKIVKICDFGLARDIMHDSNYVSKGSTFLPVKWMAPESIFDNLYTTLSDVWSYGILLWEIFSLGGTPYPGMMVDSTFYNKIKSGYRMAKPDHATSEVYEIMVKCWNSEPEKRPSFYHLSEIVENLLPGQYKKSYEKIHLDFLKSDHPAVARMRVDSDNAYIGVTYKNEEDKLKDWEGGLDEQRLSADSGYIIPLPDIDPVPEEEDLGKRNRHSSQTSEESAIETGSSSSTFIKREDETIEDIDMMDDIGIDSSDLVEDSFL
Data set [12] concerns the target Serine/threonine-protein kinase pim-1 (Homo sapiens) (UniProt P11309). The data set is described as follows: PIM1 Invitrogen selectivity data (BI). As to conditions: Compound concentration 3.0 uM.
In data set [13] the target is T3, Aurora kinase C (Homo sapiens) (UniProt Q9UQB9).
T3 sequence (whole entry): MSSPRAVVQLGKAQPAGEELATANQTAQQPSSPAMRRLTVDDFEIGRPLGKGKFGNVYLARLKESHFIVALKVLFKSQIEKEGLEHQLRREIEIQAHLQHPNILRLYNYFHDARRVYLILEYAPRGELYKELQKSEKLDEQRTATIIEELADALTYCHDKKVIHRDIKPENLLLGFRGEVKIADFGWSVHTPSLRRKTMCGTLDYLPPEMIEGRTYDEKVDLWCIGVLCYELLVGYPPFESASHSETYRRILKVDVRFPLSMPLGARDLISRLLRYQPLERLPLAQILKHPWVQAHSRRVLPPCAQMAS
The data set can be described thus: AURKC Invitrogen selectivity data (BI). Conditions: Compound concentration 3.0 uM.

Data set [14] addresses B2 bradykinin receptor (Homo sapiens) (UniProt P30411). The data set can be described thus: B2/H Eurofins-Panlabs selectivity data (BI). Conditions: filed as antagonist, Compound concentration 10.0 uM.
Data set [15] addresses Mitogen-activated protein kinase kinase kinase kinase 5 (Homo sapiens) (UniProt Q9Y4K4). The data set can be described thus: MAP4K5 Invitrogen selectivity data (BI). Conditions: Compound concentration 3.0 uM.
Data set [16] addresses Casein kinase I isoform gamma-2 (Homo sapiens) (UniProt P78368). The data set can be described thus: CSNK1G2 Invitrogen selectivity data (BI). As to conditions: Compound concentration 3.0 uM.
The target in data set [17] is RAF proto-oncogene serine/threonine-protein kinase (Homo sapiens) (UniProt P04049). The data set can be described thus: RAF1 Invitrogen selectivity data (BI). As to conditions: Compound concentration 3.0 uM.
Sequence of RAF proto-oncogene serine/threonine-protein kinase (Homo sapiens) (P04049 whole entry): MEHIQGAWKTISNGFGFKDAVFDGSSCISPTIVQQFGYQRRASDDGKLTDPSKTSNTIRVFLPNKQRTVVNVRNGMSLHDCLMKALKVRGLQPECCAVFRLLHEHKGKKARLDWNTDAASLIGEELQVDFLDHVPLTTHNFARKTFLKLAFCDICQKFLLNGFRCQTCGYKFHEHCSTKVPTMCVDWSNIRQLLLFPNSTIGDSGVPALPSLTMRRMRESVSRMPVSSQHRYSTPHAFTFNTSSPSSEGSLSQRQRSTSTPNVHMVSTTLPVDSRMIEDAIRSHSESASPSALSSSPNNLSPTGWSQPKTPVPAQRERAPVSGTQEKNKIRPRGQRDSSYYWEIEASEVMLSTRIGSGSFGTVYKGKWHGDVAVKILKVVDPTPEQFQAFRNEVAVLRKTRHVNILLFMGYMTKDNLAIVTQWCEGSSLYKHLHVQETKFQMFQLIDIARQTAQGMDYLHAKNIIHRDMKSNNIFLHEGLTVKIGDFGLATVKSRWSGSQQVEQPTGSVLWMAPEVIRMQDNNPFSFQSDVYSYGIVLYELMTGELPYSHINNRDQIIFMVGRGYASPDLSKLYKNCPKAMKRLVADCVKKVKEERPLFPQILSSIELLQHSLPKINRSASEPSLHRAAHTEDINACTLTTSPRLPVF
Data set [18] has as its target Serine/threonine-protein kinase 26 (Homo sapiens) (UniProt Q9P289). The data set can be described thus: MST4 Invitrogen selectivity data (BI). Conditions: Compound concentration 3.0 uM.
In data set [19] the target is DNA-dependent protein kinase catalytic subunit (Homo sapiens) (UniProt P78527). The data set can be described thus: DNA-PK Invitrogen selectivity data (BI). As to conditions: Compound concentration 3.0 uM.
For data set [20], the target named is Cysteinyl leukotriene receptor 1 (Homo sapiens) (UniProt Q9Y271). The data set can be described thus: LTD4/H Cerep selectivity data (BI). Conditions: Compound concentration 20.0 uM.
In data set [21] the target is Sodium-dependent noradrenaline transporter (Homo sapiens) (UniProt P23975). The data set can be described thus: NETRANS/H Eurofins-Panlabs selectivity data (BI). Conditions: Compound concentration 10.0 uM.
The target in data set [22] is Mu-type opioid receptor (Homo sapiens) (UniProt P35372). The data set is described as follows: MU/H Cerep selectivity data (BI). Conditions: Compound concentration 20.0 uM.
The target of data set [23] is Phosphorylase b kinase gamma catalytic chain, liver/testis isoform (Homo sapiens) (UniProt P15735). The data set can be described thus: PHKG2 Invitrogen selectivity data (BI). As to conditions: Compound concentration 3.0 uM.
Sequence of Phosphorylase b kinase gamma catalytic chain, liver/testis isoform (Homo sapiens) (P15735 whole entry, looked up, canonical isoform): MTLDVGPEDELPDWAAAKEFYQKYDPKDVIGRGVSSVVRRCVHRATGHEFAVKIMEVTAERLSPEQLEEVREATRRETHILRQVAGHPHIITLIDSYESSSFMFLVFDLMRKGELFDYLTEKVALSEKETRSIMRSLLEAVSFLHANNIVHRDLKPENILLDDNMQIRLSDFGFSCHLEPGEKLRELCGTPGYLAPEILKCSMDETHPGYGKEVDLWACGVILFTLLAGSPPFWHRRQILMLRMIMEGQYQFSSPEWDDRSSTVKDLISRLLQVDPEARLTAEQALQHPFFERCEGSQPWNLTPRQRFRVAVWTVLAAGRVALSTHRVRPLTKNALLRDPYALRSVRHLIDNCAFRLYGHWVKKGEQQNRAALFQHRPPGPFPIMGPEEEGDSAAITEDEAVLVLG

Sequence of Serine/threonine-protein kinase B-raf (Homo sapiens), P15056 [V600E] (P15056 whole entry V600E): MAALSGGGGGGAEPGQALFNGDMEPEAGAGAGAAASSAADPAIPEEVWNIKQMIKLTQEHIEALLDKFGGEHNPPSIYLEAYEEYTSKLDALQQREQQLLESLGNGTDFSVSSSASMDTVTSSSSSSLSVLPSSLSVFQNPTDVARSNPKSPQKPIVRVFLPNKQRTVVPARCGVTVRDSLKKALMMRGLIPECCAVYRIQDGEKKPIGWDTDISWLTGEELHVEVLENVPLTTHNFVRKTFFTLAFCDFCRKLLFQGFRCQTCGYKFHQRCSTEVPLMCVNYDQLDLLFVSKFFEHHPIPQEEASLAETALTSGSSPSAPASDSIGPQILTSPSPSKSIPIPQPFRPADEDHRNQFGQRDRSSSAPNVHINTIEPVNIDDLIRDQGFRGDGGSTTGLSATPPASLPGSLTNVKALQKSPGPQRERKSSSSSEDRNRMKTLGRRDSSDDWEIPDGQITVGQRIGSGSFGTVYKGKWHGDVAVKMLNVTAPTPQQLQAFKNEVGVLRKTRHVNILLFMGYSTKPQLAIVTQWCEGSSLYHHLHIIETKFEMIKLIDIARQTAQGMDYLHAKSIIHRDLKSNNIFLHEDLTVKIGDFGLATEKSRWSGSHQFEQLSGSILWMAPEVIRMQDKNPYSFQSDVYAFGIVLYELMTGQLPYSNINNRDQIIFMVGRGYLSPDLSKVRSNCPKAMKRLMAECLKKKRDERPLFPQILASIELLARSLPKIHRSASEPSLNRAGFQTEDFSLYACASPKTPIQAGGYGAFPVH
Sequence of Serine/threonine-protein kinase pim-1 (Homo sapiens) (P11309 whole entry, looked up): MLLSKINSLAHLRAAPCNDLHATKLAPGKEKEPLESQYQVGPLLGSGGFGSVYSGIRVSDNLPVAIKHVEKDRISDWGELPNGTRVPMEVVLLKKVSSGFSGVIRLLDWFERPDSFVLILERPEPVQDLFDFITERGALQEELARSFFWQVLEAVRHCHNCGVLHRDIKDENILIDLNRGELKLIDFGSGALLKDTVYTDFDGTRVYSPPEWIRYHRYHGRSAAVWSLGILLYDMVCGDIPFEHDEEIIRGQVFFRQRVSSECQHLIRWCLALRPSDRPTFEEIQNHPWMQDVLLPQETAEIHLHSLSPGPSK

One may read the inhibition as the drop in the measured response relative to a control, in per cent. Regarding `CN(C)C(=O)Cn1cc(-c2nc(C3(c4ccc(-c5cnc(N)nc5)cc4)CC3)no2)cn1` [BI 0153], in data set [1], the inhibition is 7.58%.
For `CN(C)C(=O)Cn1cc(-c2nc([C@@](C)(c3ccc(-c4cnc(N)nc4)cc3)C3CC3)no2)cn1` [BI 665915], the residual activity in data set [2] was 94%; in data set [3], 101%; in data set [4], 88%; in data set [5] it was 97%; in data set [6], 102%; in data set [7] it was 91.5%. The residual activity in data set [8] is 94.5%; in [9], 98.5%; in data set [10], 83%; in [11], 86%; in data set [12], 97.5%; in [13], 93%. Besides, the residual activity was 123% in [14]; 93% in data set [15]; 98.5% in data set [16]; 97% in data set [17]; 99% in data set [18]; 91% in data set [19]. For the same molecule, the residual activity in [20] was 101%; in data set [21], 103%; in data set [22], 103%; in data set [23] it was 97.5%. In addition, the activity at 10 µM at hERG (KCNH2) is recorded as 90% (not active).
